This note sets out measurements from PubChem BioAssay AID743349 (Broad Institute, 2014).

Structures are written as SMILES. The source made the active and inactive calls. The rule behind the calls is not given here. Where only a bound is given, the exact number is not on record here.

For the assay, the system named is M. tuberculosis wild type plus biotin, growth inhibition. Description: growth inhibition of wild-type M. tuberculosis, plus biotin, BioA project, dry powder (AID 743349).
As to `COc1ccccc1C(=O)N1CCN(c2ccc(C(C)=O)cc2)CC1`, the IC90 was > 50 µM (inactive).

As for `CN1c2ccc(-c3cccc(F)c3)cc2[C@H]2[C@H](CCN2C(=O)Cc2ccccc2)[C@H]1CO`, the IC90 was > 50 µM (inactive).

`COc1ccccc1NC(=O)N1CC[C@@H]2[C@@H](CO)N(C)c3ccc(-c4cccc(F)c4)cc3[C@@H]21`: the IC90 was > 50 µM (inactive).

With `CCC(=O)N1CC[C@@H]2[C@@H](CO)N(C)c3ccc(-c4ccc(F)cc4)cc3[C@@H]21`, the IC90 is > 50 µM (inactive).

Turning to `CC(=O)c1ccc(N2CCN(C(=O)c3ccc4c(c3)OCO4)CC2)cc1`, the IC90 was > 50 µM (inactive).

With `CCCCCCCC(=O)N1CC[C@@H]2[C@@H](CO)N(C)c3ccc(-c4cccc(F)c4)cc3[C@@H]21`, the IC90 was > 50 µM (inactive).

Take `COc1cccc(NC(=O)N2CC[C@@H]3[C@@H](CO)N(C)c4ccc(-c5cccc(F)c5)cc4[C@@H]32)c1`: the IC90 was > 50 µM (inactive).

As for `CC(C)NC(=O)N1CC[C@@H]2[C@@H](CO)N(C)c3ccc(-c4ccc(F)cc4)cc3[C@@H]21`, the IC90 is > 50 µM (inactive).

Take `COC(=O)CCCCCCC(=O)N1CC[C@@H]2[C@@H](CO)N(C)c3ccc(-c4cccc(F)c4)cc3[C@@H]21`: the IC90 was > 50 µM (inactive).

As for `CN1c2ccc(-c3ccc(F)cc3)cc2[C@H]2[C@H](CCN2C(=O)Nc2ccc(F)cc2)[C@H]1CO`, the IC90 is > 50 µM (inactive).

For the molecule `CN1c2ccc(-c3cccc(F)c3)cc2[C@@H]2[C@@H](CCN2C(=O)c2ccc3c(c2)OCO3)[C@@H]1CO`, the IC90 is > 50 µM (inactive).

Turning to `CC(=O)c1ccc(N2CCN(C(=O)c3ccccc3Cl)CC2)cc1`, the IC90 is > 50 µM (inactive).

On to `CC(C)NC(=O)N1CC[C@@H]2[C@@H](CO)N(C)c3ccc(-c4cccc(F)c4)cc3[C@@H]21`, for which the IC90 was > 50 µM (inactive).

For the molecule `CC(=O)c1ccc(N2CCN(C(=O)c3ccc4c(c3)OCO4)[C@H](C)C2)cc1`, the IC90 was > 50 µM (inactive).

As for `COc1ccccc1NC(=O)N1CC[C@@H]2[C@@H](CO)N(C)c3ccc(-c4ccc(F)cc4)cc3[C@@H]21`, the IC90 was > 50 µM (inactive).

Consider `COc1ccc(NC(=O)N2CC[C@@H]3[C@@H](CO)N(C)c4ccc(-c5cccc(F)c5)cc4[C@@H]32)cc1`, for which the IC90 is > 50 µM (inactive).

With `CN1c2ccc(-c3cccc(F)c3)cc2[C@H]2[C@H](CCN2C(=O)CCCCCCN)[C@H]1CO`, the IC90 was > 50 µM (inactive).

For the molecule `CN1c2ccc(-c3cccc(F)c3)cc2[C@H]2[C@H](CCN2C(=O)CCCCCCC(=O)O)[C@H]1CO`, the IC90 is > 50 µM (inactive).

Consider `CN1c2ccc(-c3ccc(F)cc3)cc2[C@H]2[C@H](CCN2C(=O)Nc2cc(F)ccc2F)[C@H]1CO`, for which the IC90 is > 50 µM (inactive).

With `COCC(=O)N1CC[C@@H]2[C@@H](CO)N(C)c3ccc(-c4cccc(F)c4)cc3[C@@H]21`, the IC90 was > 50 µM (inactive).

`COc1ccc(NC(=O)N2CC[C@@H]3[C@@H](CO)N(C)c4ccc(-c5ccc(F)cc5)cc4[C@@H]32)cc1`: the IC90 is > 50 µM (inactive).

For the molecule `CN1c2ccc(-c3cccc(F)c3)cc2[C@H]2[C@H](CCN2C(=O)Cc2cccnc2)[C@H]1CO`, the IC90 is > 50 µM (inactive).

Take `CC(=O)c1ccc(N2CCN(C(=O)c3ccccc3F)CC2)cc1`: the IC90 was > 50 µM (inactive).

Take `CN1c2ccc(-c3cccc(F)c3)cc2[C@H]2[C@H](CCN2C(=O)c2ccc3c(c2)OCO3)[C@@H]1CO`: the IC90 is > 50 µM (inactive).

Regarding `CC(=O)c1ccc(NCCNC(=O)c2ccc3c(c2)OCO3)cc1`, the IC90 was > 50 µM (inactive).

With `CN(C)C(=O)c1ccc(N2CCN(C(=O)c3ccc4c(c3)OCO4)CC2)cc1`, the IC90 is > 50 µM (inactive).

`CN1c2ccc(-c3ccc(F)cc3)cc2[C@H]2[C@H](CCN2C(=O)Cc2ccccn2)[C@H]1CO`: the IC90 was > 50 µM (inactive).

For `CNC(=O)c1ccc(N2CCN(C(=O)c3ccc4c(c3)OCO4)CC2)cc1`, the IC90 was > 50 µM (inactive).

Consider `CNS(=O)(=O)c1ccc(N2CCN(C(=O)c3ccc4c(c3)OCO4)CC2)cc1`, for which the IC90 was > 50 µM (inactive).

Consider `CN1c2ccc(-c3cccc(F)c3)cc2[C@H]2[C@H](CCN2C(=O)Nc2ccccc2F)[C@H]1CO`, for which the IC90 is > 50 µM (inactive).

Regarding `CCCNC(=O)N1CC[C@@H]2[C@@H](CO)N(C)c3ccc(-c4ccc(F)cc4)cc3[C@@H]21`, the IC90 was > 50 µM (inactive).

As for `CN1c2ccc(-c3ccc(F)cc3)cc2[C@H]2[C@H](CCN2C(=O)Cc2cccnc2)[C@H]1CO`, the IC90 is > 50 µM (inactive).

Regarding `CC(=O)c1ccc(N2CC3(CN(C(=O)c4ccc5c(c4)OCO5)C3)C2)cc1`, the IC90 was > 50 µM (inactive).

As for `CN1c2ccc(-c3cccc(F)c3)cc2[C@@H]2[C@@H](CCN2C(=O)c2ccc3c(c2)OCO3)[C@H]1CO`, the IC90 was > 50 µM (inactive).

A word on the IC90: it is the concentration needed for an effect of 90%.
